For the assay, the target named is T1, LRRK2 (endogenous, HiBit tagged) (Homo sapiens, UniProt Q5S007).
T1 construct: endogenous in cells; host or cells: HEK293 cells with HiBit knock-in at the endogenous LRRK2 locus, stably expressing firefly luciferase
Kind of assay: Endogenous LRRK2 degradation assay, endogenous gene C-terminally HiBit-tagged in HEK293 cells (Nano-Glo Dual Luciferase). The class given is cell-based. The conditions noted are these: endogenous HiBit-tagged LRRK2 in HEK293 cells, 24 hours treatment. The method in brief: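 LRRK2-HiBit quantified via Nano-Glo Dual Luciferase in HEK293 knock-in cells co-expressing firefly luciferase, after 24 h exposure to compound (1 μM final top, 1:3, 11 points). Values normalised to DMSO median per plate and curve-fitted; Alamar Blue viability run alongside.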
(HiBiT is a short tag that completes a luciferase, so light tracks the accessible tagged protein.)

The mark [1] stands for this setting: read-out: **Endogenous WT Dmax (%).

Read-outs that look alike come from different tables or passages of the source.

T1 sequence (Q5S007 whole entry): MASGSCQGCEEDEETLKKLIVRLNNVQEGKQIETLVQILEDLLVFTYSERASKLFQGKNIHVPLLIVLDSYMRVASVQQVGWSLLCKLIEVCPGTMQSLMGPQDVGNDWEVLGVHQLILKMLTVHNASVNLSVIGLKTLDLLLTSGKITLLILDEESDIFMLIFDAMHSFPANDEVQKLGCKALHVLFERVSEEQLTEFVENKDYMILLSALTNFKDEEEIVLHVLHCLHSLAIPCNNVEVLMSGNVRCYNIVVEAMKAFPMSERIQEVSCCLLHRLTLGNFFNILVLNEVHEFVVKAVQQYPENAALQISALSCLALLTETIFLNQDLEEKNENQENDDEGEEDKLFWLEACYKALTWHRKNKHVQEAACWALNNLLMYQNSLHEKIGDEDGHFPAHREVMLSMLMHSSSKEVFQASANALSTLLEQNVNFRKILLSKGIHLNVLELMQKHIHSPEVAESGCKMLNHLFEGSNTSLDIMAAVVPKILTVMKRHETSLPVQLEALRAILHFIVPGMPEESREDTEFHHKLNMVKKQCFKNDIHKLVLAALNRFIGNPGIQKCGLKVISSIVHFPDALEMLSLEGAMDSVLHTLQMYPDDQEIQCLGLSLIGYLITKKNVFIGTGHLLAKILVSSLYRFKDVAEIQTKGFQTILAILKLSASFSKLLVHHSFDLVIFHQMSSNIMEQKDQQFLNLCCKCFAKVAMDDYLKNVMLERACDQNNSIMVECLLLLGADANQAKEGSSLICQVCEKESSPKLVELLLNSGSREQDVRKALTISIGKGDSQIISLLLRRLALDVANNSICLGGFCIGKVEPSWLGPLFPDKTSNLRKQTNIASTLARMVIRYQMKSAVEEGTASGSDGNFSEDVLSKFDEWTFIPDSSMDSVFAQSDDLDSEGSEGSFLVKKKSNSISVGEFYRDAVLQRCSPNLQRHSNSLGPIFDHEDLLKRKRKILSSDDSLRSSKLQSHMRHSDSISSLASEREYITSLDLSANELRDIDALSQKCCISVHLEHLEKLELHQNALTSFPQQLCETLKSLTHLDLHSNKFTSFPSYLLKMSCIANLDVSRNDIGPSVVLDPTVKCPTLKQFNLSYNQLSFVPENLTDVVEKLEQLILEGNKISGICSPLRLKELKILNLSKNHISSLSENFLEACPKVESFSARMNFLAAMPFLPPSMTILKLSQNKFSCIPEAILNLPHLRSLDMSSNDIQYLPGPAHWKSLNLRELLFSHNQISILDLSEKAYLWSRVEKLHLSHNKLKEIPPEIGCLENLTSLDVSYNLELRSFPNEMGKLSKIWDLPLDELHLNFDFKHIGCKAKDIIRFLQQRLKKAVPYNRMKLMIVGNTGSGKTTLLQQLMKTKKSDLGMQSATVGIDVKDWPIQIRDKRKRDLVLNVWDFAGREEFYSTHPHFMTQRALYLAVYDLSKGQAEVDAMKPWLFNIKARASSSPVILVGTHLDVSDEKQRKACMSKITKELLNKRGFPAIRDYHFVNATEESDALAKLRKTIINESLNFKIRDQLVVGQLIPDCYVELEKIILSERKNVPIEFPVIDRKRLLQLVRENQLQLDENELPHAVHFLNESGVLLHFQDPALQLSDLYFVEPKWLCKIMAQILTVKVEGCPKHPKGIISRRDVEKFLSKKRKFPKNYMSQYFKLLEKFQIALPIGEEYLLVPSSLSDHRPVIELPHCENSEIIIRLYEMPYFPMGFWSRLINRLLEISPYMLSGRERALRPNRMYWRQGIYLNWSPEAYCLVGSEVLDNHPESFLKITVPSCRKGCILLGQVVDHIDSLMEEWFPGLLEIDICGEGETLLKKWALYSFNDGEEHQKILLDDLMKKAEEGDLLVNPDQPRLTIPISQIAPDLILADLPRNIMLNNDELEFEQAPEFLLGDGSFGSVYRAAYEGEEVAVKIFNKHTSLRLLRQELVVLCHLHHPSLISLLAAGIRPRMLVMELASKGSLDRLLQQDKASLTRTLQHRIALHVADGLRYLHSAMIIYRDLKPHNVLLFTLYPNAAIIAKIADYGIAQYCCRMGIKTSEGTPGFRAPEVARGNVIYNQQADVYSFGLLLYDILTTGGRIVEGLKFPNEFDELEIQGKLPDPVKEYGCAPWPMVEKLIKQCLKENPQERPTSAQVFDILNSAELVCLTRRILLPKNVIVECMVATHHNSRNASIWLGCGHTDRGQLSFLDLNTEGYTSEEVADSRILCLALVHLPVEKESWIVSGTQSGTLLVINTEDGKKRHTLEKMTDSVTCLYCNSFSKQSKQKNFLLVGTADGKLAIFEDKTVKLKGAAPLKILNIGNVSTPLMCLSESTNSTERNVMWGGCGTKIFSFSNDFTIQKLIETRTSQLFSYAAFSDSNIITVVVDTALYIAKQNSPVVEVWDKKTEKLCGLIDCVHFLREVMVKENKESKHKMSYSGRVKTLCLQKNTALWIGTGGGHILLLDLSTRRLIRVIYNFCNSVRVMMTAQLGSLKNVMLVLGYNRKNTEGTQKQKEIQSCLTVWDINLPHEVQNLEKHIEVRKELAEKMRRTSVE

On to `COc1c(N2CCN(C[C@@H]3CO[C@@H](CN4CCN(c5cc(-c6[nH]nc7ccc(OC8(C)CC8)cc67)ncn5)CC4)CO3)CC2)ccc2c1CN(C1CCC(=O)NC1=O)C2=O` (some centres unmarked) [Compound 291, 3-[4-methoxy-5-(4-{[(2r,5s)-5-[(4-{6-[5-(1-methylcyclopropoxy)-2H-indazol-3-yl]pyrimidin-4-yl}piperazin-1-yl)methyl]-1,4-dioxan-2-yl]methyl}piperazin-1-yl)-1-oxo-2,3-dihydro-1H-isoindol-2-yl]piperidine-2,6-dione], for which the Dmax (in general, the largest share of the target that was removed) under setting [1] was no less than 70%. Also, the 50% degradation concentration (DC50) (in general, the concentration giving 50% degradation) (read-out: *Endogenous WT DC50) was less than 10 nM.
In the case of `CC1(Oc2cc3c(-c4cc(N5CCC(CN6CC[C@@H](CN7CCN(c8ccc9c(c8F)CN(C8CCC(=O)NC8=O)C9=O)CC7)[C@@H](F)C6)CC5)ncn4)n[nH]c3cc2F)CC1` (some centres unmarked) [Compound 294, 3-[4-fluoro-5-(4-{[(3r,4s)-3-fluoro-1-[(1-{6-[6-fluoro-5-(1-methylcyclopropoxy)-1H-indazol-3-yl]pyrimidin-4-yl}piperidin-4-yl)methyl]piperidin-4-yl]methyl}piperazin-1-yl)-1-oxo-2,3-dihydro-1H-isoindol-2-yl]piperidine-2,6-dione], the Dmax under setting [1] lay in the range of 50 to 70%. For the same molecule, the DC50 (read-out: *Endogenous WT DC50) is less than 10 nM.
`CC1(Oc2ccc3n[nH]c(-c4cc(N5CCN(C[C@H]6CC[C@H](OC7CCN(c8ccc9c(c8F)CN(C8CCC(=O)NC8=O)C9=O)CC7)CC6)CC5)ncn4)c3c2)CC1` (some centres unmarked) [Compound 234, 3-[4-fluoro-5-[4-[4-[[4-[6-[5-(1-methylcyclopropoxy)-2H-indazol-3-yl]pyrimidin-4-yl]piperazin-1-yl]methyl]cyclohexoxy]-1-piperidyl]-1-oxo-isoindolin-2-yl]piperidine-2,6-dione]: for the setting “read-out: Endogenous WT DC50”, the DC50 is less than 10 nM. Also, the Dmax (read-out: Endogenous WT Dmax) fell in the range of 50 to 70%.
The matching figures for `CC1(Oc2ccc3[nH]nc(-c4cnnc(N5CCC(O[C@H]6CC[C@H](CN7CCN(c8ccc9c(c8F)CN(C8CCC(=O)NC8=O)C9=O)CC7)CC6)CC5)c4)c3c2)CC1` (some centres unmarked) [Compound 377, 3-[4-fluoro-1-oxo-5-(4-{[(1r,4r)-4-[(1-{5-[5-(1-methylcyclopropoxy)-1H-indazol-3-yl]pyridazin-3-yl}piperidin-4-yl)oxy]cyclohexyl]methyl}piperazin-1-yl)-2,3-dihydro-1H-isoindol-2-yl]piperidine-2,6-dione]: less than 10 nM and 50 to 70%.
For `C[C@H]1CN(c2cc(-c3n[nH]c4ccc(OC5(C)CC5)cc34)ncn2)CCN1CCN1CCC2(CN(c3ccc4c(c3F)CN(C3CCC(=O)NC3=O)C4=O)C2)C(F)(F)C1` (stereo partly drawn) [Compound 317, 3-[5-(5,5-difluoro-7-{2-[(2S)-2-methyl-4-{6-[5-(1-methylcyclopropoxy)-1H-indazol-3-yl]pyrimidin-4-yl}piperazin-1-yl]ethyl}-2,7-diazaspiro[3.5]nonan-2-yl)-4-fluoro-1-oxo-2,3-dihydro-1H-isoindol-2-yl]piperidine-2,6-dione], the Dmax under setting [1] fell in the range of 50 to 70%. The DC50 (read-out: *Endogenous WT DC50) was less than 10 nM.
For the molecule `COc1c(N2CCN(C[C@H]3C[C@H](OC4CCN(c5cc(-c6[nH]nc7ccc(OC8(C)CC8)cc67)ncn5)CC4)C3)CC2)ccc2c1CN(C1CCC(=O)NC1=O)C2=O` (some centres unmarked) [Compound 314, 3-[4-methoxy-1-oxo-5-(4-{[(1r,3r)-3-[(1-{6-[5-(1-methylcyclopropoxy)-2H-indazol-3-yl]pyrimidin-4-yl}piperidin-4-yl)oxy]cyclobutyl]methyl}piperazin-1-yl)-2,3-dihydro-1H-isoindol-2-yl]piperidine-2,6-dione], the Dmax under setting [1] is 50 to 70%. Moreover, the DC50 (read-out: *Endogenous WT DC50) is less than 10 nM.
On to `CC1(Oc2ccc3[nH]nc(-c4cc(N5CCC(CN6CCN(CC7CCN(c8c(F)cc9c(c8F)CN(C8CCC(=O)NC8=O)C9=O)CC7)CC6)CC5)ncn4)c3c2)CC1` (centres unmarked) [Compound 219, 3-[4,6-difluoro-5-[4-[[4-[[1-[6-[5-(1-methylcyclopropoxy)-1H-indazol-3-yl]pyrimidin-4-yl]-4-piperidyl]methyl]piperazin-1-yl]methyl]-1-piperidyl]-1-oxo-isoindolin-2-yl]piperidine-2,6-dione], for which the DC50 (read-out: Endogenous WT DC50) is less than 10 nM. Where the note is “read-out: Endogenous WT Dmax”, the Dmax lay within 50 to 70%.

(Values after patent US12559506B2, “Indazole based compounds and associated methods of use” (Arvinas Operations, Inc., priority 2021, dated 2026).)
